Measured values reported in PMC8245078, “Development of novel benzofuran-isatin conjugates as potential antiproliferative agents with apoptosis inducing mechanism in Colon cancer” (Journal of Enzyme Inhibition and Medicinal Chemistry, 2021).

Legend:
[1] = tested on: SW-620 colorectal cancer cell line; assay: MTT cell viability assay; assay type: cell-based, human; conditions: Homo sapiens, SW-620, SW-620, MTT
Procedure: (§1) In the present investigation a new set of benzofuran–isatin hybrids (5a–e and 7a–i) was synthesised to be evaluated for their potential anticancer activity towards two human colorectal cancer cell lines, SW-620 and HT-29. […] Both, SW-620 and HT-29 cells were treated with 10 µM of each compound for 24 h and the percent cell viability was calculated using MTT assay.
(§2) For this reason, compounds 5a and 5d were pursued for further studies. Starting with determination of IC50s and cytotoxic selectivity studies. Serial concentrations of compounds 5a and 5d were used to examine their impact on cell viability using MTT protocol. Results of concentration vs percent viability were charted, and the IC50 was calculated for SW-620 and HT-29 cell lines using Graph Pad prism 8 (Figure 4). […]
(§3) [(Ti-Tz)/Tz] x 100 for concentrations for which Ti<Tz […]
(§4) SW620 and HT29 colorectal cancer cell lines and HFF-1 fibroblast (ATCC, Rockville, USA) were used. HT29 cells were cultured and maintained in Dulbecco’s Modified Eagles Medium (DMEM) (GIBCO, by Thermo Fischer Scientific, NY, USA) supplemented with 10% fetal bovine serum (FBS), 100 units/mL penicillin, and 100 μg streptomycin. SW620 and HFF-1 cells were cultured in Roswell Park Memorial Institute medium (RPMI-1640) (GIBCO, by Thermo scientific, NY, USA) supplemented with 10% FBS and 1% penicillin and streptomycin (Napolitano et al., 2015). All cultures were incubated at 37 °C and humidified atmosphere of 5% […]
(§5) 2.3. Cell Viability Assay
(§6) The cytotoxicity effect of compounds on the colorectal cancer cell lines, SW620 and HT29 in addition to the normal human fibroblasts was measured by MTT (3-(4, 5-dimethylthiazol-2-yl)-2,5-diphenyltetrazolium bromide) (Sigma-Aldrich, St. Louis, MO, USA) as previously described. Briefly, cells were seeded in 96 well culture plates at 5000/well for HT29 and 10,000/well for SW620 for 24 h. Cells were then incubated with different compounds from WAG1 series (1-15) 24h at 37 °C and humidified 5% CO2 incubator. Freshly prepared 10 μl of 3-(4,5-dimethylthiazol-2-yl)-2,5-diphenyltetrazolium bromide (MTT 5 mM) solution were added to the cells and further incubated for 2 h. Thereafter, 100 μl of dimethyl sulfoxide (DMSO) were added in each well and the crystals were dissolved through careful pipetting. In certain experiment, cells were treated different concentration of 5FU for 72 h. The absorbance of the product was measured at 540 nm using a Synergy™ 2 multi-mode microplate reader (Biotech, VA, USA). The experiments were performed in triplicate for each condition. […]
(§7) The total protein concentration was evaluated by the colorimetric
(§8) Bradford protein assay (BIO-RAD inc, CA, USA) at 595 nm absorbance. Lysates were loaded in […]

[2] = tested on: HT-29 colorectal cancer cell line; assay: MTT cell viability assay; assay type: cell-based, human; conditions: for inhibition of HT-29 cancer cells viability: 10 µM, 24 h, MTT
Procedure: as §1, §2, §3, §4, §5
as §6, with “pipetting.” for “pipetting. In certain experiment, cells were treated different concentration of 5FU for 72 h. The absorbance of the product was measured at 540 nm using a Synergy™ 2 multi-mode microplate reader (Biotech, VA, USA). The experiments were performed in triplicate for each condition.”
VA, USA). The experiments were performed in triplicate for each condition. […]
as §7, §8

| Compound | IC50 [1] [µM] | IC50 ([2]; Homo sapiens, HT-29, HT-29, MTT) [µM] | inhibition of HT-29 cancer cells viability [2] [%] |
| --- | --- | --- | --- |
| CCc1c2c(nc3ccc(OC(=O)N4CCC(N5CCCCC5)CC4)cc13)-c1cc3c(c(=O)n1C2)COC(=O)[C@]3(O)CC [Irinotecan, reference compound] | 1 | 6.18 | – |
| Cc1c(C(=O)N/N=C2\C(=O)N(Cc3ccc(F)cc3)c3ccccc32)oc2ccccc12 [Compound 7e] | – | – | > 50 |
| C=CCN1C(=O)/C(=N\NC(=O)c2oc3ccccc3c2C)c2ccccc21 [Compound 7c] | – | – | > 50 |
| Cc1c(C(=O)N/N=C2\C(=O)N(Cc3ccc(F)cc3)c3ccc(Br)cc32)oc2ccccc12 [Compound 7i] | – | – | > 50 |
| Cc1c(C(=O)N/N=C2\C(=O)N(Cc3ccccc3)c3ccc(Br)cc32)oc2ccccc12 [Compound 7h] | – | – | > 50 |
